Source: patent US8354417B2, “Solid forms comprising 3-(2,5-dimethyl-4-oxo-4H-quinazolin-3-yl)-piperidine-2,6-dione, compositions comprising the same, and methods of using the same” (Celgene Corporation, priority 2007, dated 2013)
Converted amounts (≈) assume the structure as drawn. “Also recorded” adds a separate entry of the source.

Key:
[1] = Compression testing, 2,000 psi for approximately 1 minute (XRPD); format: physicochemical; settings: 2,000 psi pressure
Protocol: The stability of Form A was further investigated using compression testing. Compression testing of Form A was carried out by applying 2,000 psi pressure to a sample of Form A for approximately 1 minute, followed by analysis for stability using X-ray powder diffraction.
The stability of Form B was further investigated using compression testing. Compression testing of Form B was carried out by applying 2,000 psi pressure to a sample of Form B for approximately 1 minute, followed by analysis for stability using X-ray powder diffraction.
(§1) X-ray powder diffraction (XRPD) analysis was conducted using a Thermo ARL X'TRA X-ray powder diffractometer using CuKα radiation at 1.54 Å. The instrument was equipped with a fine focus X-ray tube. The voltage and amperage of the X-ray generator were set at 45 kV and 40 mA, and the measuring slits were set at 0.5 mm and 0.2 mm. Diffracted radiation was measured using a Peltier-cooled Si (Li) solid-state detector. A theta-two theta continuous scan at 2.40°/min (0.5 sec/0.02° step) from 1.5°2θ to 40°2θ was used. A sintered alumina standard was used as a reference.

[2] = Slurry equilibration in solvents at 25° C. or 50° C.; format: physicochemical; settings: ethyl acetate, heptane, methyl t-butyl ether, toluene
Protocol: Form A was prepared via crystallization of 3-(2,5-dimethyl-4-oxo-4H-quinazolin-3-yl)-piperidine-2,6-dione in several organic solvent systems. Slurry crystallizations were performed by adding an excess of solid 3-(2,5-dimethyl-4-oxo-4H-quinazolin-3-yl)-piperidine-2,6-dione to 2 ml of the desired solvent system, then agitating the resulting mixture for a minimum of 24 hours at a controlled temperature. Upon reaching equilibrium, the solids were filtered, air-dried and characterized. Form A was prepared by slurry crystallization of Form B in each of the following solvents at 25° C.: acetone; acetonitrile; n-butanol; ethanol; methanol; methyl ethyl ketone; 2-propanol; and tetrahydrofuran.
Form B was prepared via crystallization of 3-(2,5-dimethyl-4-oxo-4H-quinazolin-3-yl)-piperidine-2,6-dione in several organic and aqueous solvent systems, including dimethylsulfoxide/water. Slurry crystallizations were performed by adding an excess of solid 3-(2,5-dimethyl-4-oxo-4H-quinazolin-3-yl)-piperidine-2,6-dione to 2 ml of the desired solvent system, then agitating the resulting mixture for a minimum of 24 hours at a controlled temperature. Upon reaching equilibrium, the solids were filtered, air-dried and characterized. Form B was prepared by slurry crystallization of Form A in the following solvents at both 25° C. and 50° C.: water; and ethanol/water (1/1).

[3] = Moisture sorption/desorption by Dynamic Vapor Sorption (DVS); format: physicochemical; settings: for Mass change relative to the dry mass: DVS, RH increased from 0% to 95% RH (25° C. per general method); for Weight at the end of the desorption cycle: RH decreased from 95% RH to 0% RH; for XRPD diffractogram after completion of the adsorption/desorption cycle: after full DVS cycle 0% - 95% - 0% RH; for Hygroscopicity: conclusion from moisture sorption test
Protocol: The moisture sorption/desorption behavior of Form A was investigated by Dynamic Vapor Sorption (DVS).
The moisture sorption/desorption behavior of Form B was investigated by Dynamic Vapor Sorption (DVS).
Hygroscopicity was determined using a Surface Measurement Systems DVS instrument. Typically, a sample size of 10-50 mg was loaded into the DVS instrument sample pan and the sample was analyzed on a DVS automated sorption analyzer at 25° C. The relative humidity (RH) was increased from 0% RH to 95% RH. The RH was then decreased in a similar manner to accomplish a full adsorption/desorption cycle.

[4] = Stability of slurry in solvents at 40° C. for four weeks; format: physicochemical
Protocol: The stability of Form A was further investigated by storing a slurry of Form A in each of the following solvents at 40° C. for four weeks: acetone; acetonitrile; ethanol; heptane; 2-propanol; methyl t-butyl ether; methanol; water; and ethanol/water (1/1). The Form A material was stable in acetone; acetonitrile; ethanol; heptane; 2-propanol; methyl t-butyl ether; and methanol.
The stability of Form B was further investigated by storing a slurry of Form B in the following solvents at 40° C. for four weeks: acetone; acetonitrile; ethanol; heptane; 2-propanol; methyl t-butyl ether; methanol; water; and ethanol/water (1/1). The Form B material was stable in heptane; methyl t-butyl ether; water; and ethanol/water (1/1).

[5] = Moisture sorption/desorption by Dynamic Vapor Sorption (DVS); format: physicochemical; settings: isothermic approximately 23.3° C.; for Mass increase in moisture sorption test: approximately 0% RH to approximately 50% RH (FIG. 5 / FIG. 10); for Total mass increase in moisture sorption test: approximately 0% RH to approximately 95% RH (FIG. 5 / FIG. 10)
[6] = Approximate measured solubility in solvents at 25° C.; format: physicochemical; settings: at least 24 hours; for solubility: 25 °C, thermodynamic from solid
Protocol: The solubility of Form A was investigated in a number of solvents at ambient conditions. Solubility measurements were obtained by adding solvent (either HPLC grade or reagent grade) to a carefully weighed (approximately 100 mg) sample of Form A. The resulting mixture was agitated for at least 24 hours at 25° C. The solubility was estimated based on the total volume of solvent required to give a complete solution. In addition, a known volume of filtrate was evaporated to dryness and the weight of the residue was measured.
The solubility of Form B was investigated in a number of solvents at ambient conditions. Solubility measurements were obtained by adding solvent (either HPLC grade or reagent grade) to a carefully weighed (approximately 100 mg) sample of Form B. The resulting mixture was agitated for at least 24 hours at 25° C. The solubility was estimated based on the total volume of solvent required to give a complete solution. In addition, a known volume of filtrate was evaporated to dryness and the weight of the residue was measured.

[7] = Stability on exposure to 40° C./75% RH for four weeks (XRPD); format: physicochemical; settings: 40° C./75% RH environment
Protocol: The stability of Form A was investigated by exposing a sample of Form A to a 40° C./75% RH environment for four weeks.
The stability of Form B was investigated by exposing a sample of Form B to a 40° C./75% RH environment for four weeks.
as §1

Cc1cccc2nc(C)n(C3CCC(=O)NC3=O)c(=O)c12 (single isomer, unassigned) [Form A, 3-(2,5-dimethyl-4-oxo-4H-quinazolin-3-yl)-piperidine-2,6-dione]
Physical stability upon compression by X-ray powder diffraction [1]: substantially unchanged; also recorded: physically stable | Stability when slurried ([2]; 25° C., acetone, acetonitrile, n-butanol, ethanol, methanol, methylene chloride, methyl ethyl ketone, 2-propanol, tetrahydrofuran): stable | Stability when slurried ([2]; 50° C., acetone, acetonitrile, n-butanol, ethanol, methanol, methyl ethyl ketone, 2-propanol, tetrahydrofuran): stable | melting point: 292 to 294 °C | Mass change relative to the dry mass [3]: 0.7% | Weight at the end of the desorption cycle [3]: lost all of the weight it had gained; also recorded: loses approximately all of the adsorbed moisture | XRPD diffractogram after completion of the adsorption/desorption cycle [3]: substantially unchanged | Hygroscopicity [3]: substantially non-hygroscopic | Stability of slurry ([4]; acetone, acetonitrile, ethanol, heptane, 2-propanol, methyl t-butyl ether, methanol): stable | Stability of slurry ([4]; water and ethanol/water (1/1)): converted into the Form B crystal form | Mass increase in moisture sorption test [5]: approximately 1% | Total mass increase in moisture sorption test [5]: approximately 4% | solubility ([6]; 2-propanol, organic solvent or mixture): 210 µg/mL (≈ 736 µM) | solubility ([6]; absolute ethanol, organic solvent or mixture): 500 µg/mL (≈ 1750 µM) | solubility ([6]; acetone, organic solvent or mixture): 2070 µg/mL (≈ 7260 µM) | solubility ([6]; acetonitrile, organic solvent or mixture): 1490 µg/mL (≈ 5220 µM) | solubility ([6]; ethanol/water (1/1), aqueous with cosolvent or surfactant or cyclodextrin): 180 µg/mL (≈ 631 µM) | solubility ([6]; ethyl acetate, organic solvent or mixture): 670 µg/mL (≈ 2350 µM) | solubility ([6]; heptane, organic solvent or mixture): 430 µg/mL (≈ 1510 µM) | solubility ([6]; methanol, organic solvent or mixture): 1280 µg/mL (≈ 4490 µM) | solubility ([6]; methyl ethyl ketone, organic solvent or mixture): 1390 µg/mL (≈ 4870 µM) | solubility ([6]; methyl t-butyl ether, organic solvent or mixture): 420 µg/mL (≈ 1470 µM) | solubility ([6]; methylene chloride, organic solvent or mixture): 2120 µg/mL (≈ 7430 µM) | solubility ([6]; n-butanol, organic solvent or mixture): 230 µg/mL (≈ 806 µM) | solubility ([6]; tetrahydrofuran, organic solvent or mixture): 4570 µg/mL (≈ 16000 µM) | solubility ([6]; toluene, organic solvent or mixture): 320 µg/mL (≈ 1120 µM) | solubility ([6]; water): 170 µg/mL (≈ 596 µM) | Physical stability of the solid form by X-ray powder diffraction [7]: substantially unchanged; also recorded: physically stable

Cc1cccc2nc(C)n(C3CCC(=O)NC3=O)c(=O)c12 (single isomer, unassigned) [Form B, 3-(2,5-dimethyl-4-oxo-4H-quinazolin-3-yl)-piperidine-2,6-dione]
Physical stability upon compression by X-ray powder diffraction [1]: substantially unchanged; also recorded: physically stable | Stability when slurried ([2]; 25° C., methylene chloride, water, ethanol/water (1/1)): stable | Mass change relative to the dry mass [3]: 2.9% | Weight at the end of the desorption cycle [3]: lost all of the weight it had gained; also recorded: loses approximately all of the adsorbed moisture | XRPD diffractogram after completion of the adsorption/desorption cycle [3]: substantially unchanged | Hygroscopicity [3]: substantially non-hygroscopic | Stability of slurry ([4]; 2-propanol): converted to a mixture of Forms A and B | Stability of slurry ([4]; acetone, acetonitrile, ethanol and methanol): converted into the Form A crystal form | Stability of slurry ([4]; heptane, methyl t-butyl ether, water, ethanol/water (1/1)): stable | Mass increase in moisture sorption test [5]: approximately 1.5% | Total mass increase in moisture sorption test [5]: approximately 3% | Approximate Solubility ([6]; 2-Propanol): 350 µg/mL | Approximate Solubility ([6]; Absolute ethanol): 500 µg/mL | Approximate Solubility ([6]; Acetone): 2560 µg/mL | Approximate Solubility ([6]; Acetonitrile): 1400 µg/mL | Approximate Solubility ([6]; Ethanol/Water (1/1)): 280 µg/mL | Approximate Solubility ([6]; Ethyl acetate): 1160 µg/mL | Approximate Solubility ([6]; Heptane): 440 µg/mL | Approximate Solubility ([6]; Methanol): 1310 µg/mL | Approximate Solubility ([6]; Methyl ethyl ketone): 1570 µg/mL | Approximate Solubility ([6]; Methyl t-butyl ether): 430 µg/mL | Approximate Solubility ([6]; Methylene chloride): 1630 µg/mL | Approximate Solubility ([6]; Tetrahydrofuran): 4710 µg/mL | Approximate Solubility ([6]; Toluene): 200 µg/mL | Approximate Solubility ([6]; Water): 100 µg/mL | Approximate Solubility ([6]; n-Butanol): 340 µg/mL | Physical stability of the solid form by X-ray powder diffraction [7]: substantially unchanged; also recorded: physically stable
